# Data from patent US20250257034A1, “INDOLE DERIVATIVES AS SEROTONERGIC AGENTS USEFUL FOR THE TREATMENT OF DISORDERS RELATED THERETO” (priority 2023, published 2025).
# Experiments:
# [1] = Mouse liver microsomes stability; format: in vitro ADME; conditions: Mouse liver microsomes
# Protocol: The objective of this study was to estimate in vitro metabolic stability of exemplary compounds of Formula (I) or a pharmaceutically acceptable salt, solvate, and/or prodrug thereof in pooled human, male rat, and male mouse liver microsomes. The concentrations of compounds in reaction systems were evaluated by LC-MS/MS for estimating the stability in pooled human, male rat, and male mouse liver microsomes. The in vitro intrinsic clearances of test compounds were determined as well.
# A master solution in the “Incubation Plate” containing phosphate buffer, ultra-pure H2O, MgCl2 solution and liver microsomes was made according to Table 33. The mixture was pre-warmed at 37° C. water bath for 5 minutes.
# 40 μL of 10 mM nicotinamide adenine dinucleotide phosphate (NADPH) solution was added to each well. The final concentration of NADPH was 1 mM. The negative control samples were prepared by replacing NADPH with 40 μL of ultra-pure H2O. Samples were prepared in duplicate. Negative controls were prepared in singlet.
# The reaction was started with the addition of 4 μL of 200 μM exemplary test compounds of the disclosure or control compounds to each master solution to get the final concentration of 2 μM. This study was performed in duplicate.
# Aliquots of 50 μL were taken from the reaction solution at 0, 15, 30, 45, and 60 minutes. The reaction solutions were stopped by the addition of 4 volumes of cold methanol with IS (100 nM alprazolam, 200 nM imipramine, 200 nM labet alol and 2 μM ketoprofen). Samples were centrifuged at 3,220 g for 40 minutes. Aliquot of 90 μL of the supernatant was mixed with 90 μL of ultra-pure H2O and then was used for LC-MS/MS analysis.
# LC/MS analysis was performed for all samples from this study using a Shimadzu liquid chromatograph separation system equipped with degasser DGU-20A5R; solvent delivery unit LC-30AD; system controller SIL-30AC; column oven CTO-30A; CTC Analytics HTC PAL System. Mass spectrometric analysis was performed using a Triple Quad™ 5500 instrument.
# All calculations were carried out using Microsoft Excel. Peak area ratios of test compound to internal standard (listed in the below table) were determined from extracted ion chromatograms.
# All calculations were carried out using Microsoft Excel. Peak areas were determined from extracted ion chromatograms. The slope value, k, was determined by linear regression of the natural logarithm of the remaining percentage of the parent drug vs. incubation time curve.
# The in vitro half-life (in vitro t1/2) was determined from the slope value:
# Conversion of the in vitro t1/2(min) into the in vitro intrinsic clearance (in vitro CLint, in μL/min/mg proteins) was done using the following equation (mean of duplicate determinations): […]
# A master solution in the “Incubation Plate” containing phosphate buffer, ultra-pure H2O, MgCl2 solution and liver microsomes was made according to Table 63. The mixture was pre-warmed at 37° C. water bath for 5 minutes.
# 40 μL of 10 mM NADPH solution was added to each well. The final concentration of NADPH was 1 mM. The negative control samples were prepared by replacing NADPH with 40 μL of ultra-pure H2O. Samples were prepared in duplicate. Negative controls were prepared in singlet.
# Conversion of the in vitro t1/2(min) into the in vitro intrinsic clearance (in vitro C Lt, in μL/min/mg proteins) was done using the following equation (mean of duplicate determinations): […]
# human 5-HT1A receptor = biological target: T1, human 5-HT1A receptor (Homo sapiens, UniProt P08908); assay: Human 5-HT1A radioligand binding assay ([3H]-8-Hydroxy-DPAT); parameters: expressed in transfected cells; host or cells: HTR1A&Gα15-CHO
# T1 sequence (P08908 1-422): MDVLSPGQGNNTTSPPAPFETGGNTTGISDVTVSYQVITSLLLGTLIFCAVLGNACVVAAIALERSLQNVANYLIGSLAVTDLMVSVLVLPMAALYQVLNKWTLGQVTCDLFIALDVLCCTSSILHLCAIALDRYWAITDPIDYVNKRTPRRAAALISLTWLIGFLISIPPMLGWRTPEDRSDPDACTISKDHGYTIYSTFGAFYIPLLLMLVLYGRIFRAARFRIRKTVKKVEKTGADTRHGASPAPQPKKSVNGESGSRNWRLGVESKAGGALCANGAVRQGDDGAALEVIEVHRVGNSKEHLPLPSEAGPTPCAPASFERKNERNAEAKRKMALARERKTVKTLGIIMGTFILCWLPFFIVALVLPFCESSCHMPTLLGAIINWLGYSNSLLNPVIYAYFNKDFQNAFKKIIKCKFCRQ
# Protocol: The objective of this study was to evaluate the binding properties of test compounds on 5-hydroxytryptamine receptor 1A (5-HT1A).
# 1. The assay buffer was prepared following Table 21 below.
# 2. 8 doses of reference and test compounds were prepared starting from 10 mM stock solution as required by 5-fold serial dilutions with 100% (v/v) DMSO.
# 3. UniFilter-96 GF/B plate was pretreated: • i. 50 μl/well of 0.5% (v/v) PEI was added to UniFilter-96 G F/B plates. The plates were sealed and incubated at 4° C. for 3 hrs. • ii. After incubation, the plates were washed 3 times with ice-cold wash buffer (50 mM Tris, pH7.4).
# 4. Assay plate was prepared: • i. Cell membrane was diluted with assay buffer and 100 μl/well was added to 96 round well plates to reach a concentration of 20 μg/well. • ii. 8 concentrations of reference or test compounds were prepared and 50 μl/well was added to 96 round deep well plates. • iii. [3H]-8-Hydroxy-DPAT was diluted with assay buffer to 2 nM (4×final concentration) and 50 μl/well was added to 96 round well plates.
# 5. The plate was centrifuged at 1000 rpm for 30 secs and then agitated at 600 rpm, R.T. for 5 min.
# 6. The plates were sealed, and the plate was incubated at 27° C. for 90 min.
# 7. The incubation was stopped by vacuum filtration onto GF/B filter plates followed by 4 times washing with ice-cold wash buffer (50 mM Tris, pH7.4).
# 9. The filter plates were sealed and 40 μl/well of scintillation cocktail was added.
# 10. The plate was read by using a Microbeta^2 microplate counter.
# 1. For reference and test compounds, the results were expressed as % Inhibition, using the normalization equation: N=100-100x(U-C2)/(C1-C2), where U is the unknown value, C1 is the average of high controls, and C2 is the average of low controls.
# 2. The IC50 was determined by fitting percentage of inhibition as a […] of compound concentrations with Hill equation using XLfit.
# The objective of this study was to evaluate the binding properties of test compounds on 5-hydroxytryptamine receptor 1A (5-HTA).
# 1. The assay buffer was prepared following Table 50 below.
# 3. UniFilter-96 G FIB plate was pretreated: • i. 50 μl/well of 0.5% (v/v) PEI was added to UniFilter-96 G FIB plates. The plates were sealed and incubated at 4° C. for 3 hrs. • ii. After incubation, the plates were washed 3 times with ice-cold wash buffer (50 mM Tris, pH7.4).
# 6. The plates were sealed and the plate was incubated at 27° C. for 90 min.
smiles,measurement,setting,value
"[2H]C([2H])([2H])N(CCc1c[nH]c2ccc(SC)cc12)C([2H])([2H])[2H] [Compound I-1, N,N-Bis(methyl-d3)-2-(5-(methylthio)-1H-indol-3-yl)ethan-1-amine]",Predicted hepatic CL,[1],81.96 mL/min/kg
same,microsomal CLint at 2 μM,"[1]; male, mouse, liver microsomes, 2 μM compound, 0.5 mg/mL microsomes, 1 mM NADPH, read-out: CLint (μL/min/mg protein)",210 µL/min/mg
same,half-life at 2 μM,"[1]; male, 2 μM compound, 0.5 mg/mL microsomes, 1 mM NADPH, 37° C",6.61 min
same,CLint scaled at 2 μM,"[1]; male, read-out: Scaled-up CLint",918 mL/min/kg
same,IC50,human 5-HT1A receptor,3.9 nM
